Measurements taken from patent US20110166163A1, “SUBSTITUTED FUROPYRIMIDINES AND USE THEREOF” (BAYER SCHERING PHARMA AKTIENGESELLSCHAFT, priority 2007, published 2011).

These compounds were tested against T1, prostacyclin receptors (IP receptors) (Homo sapiens, UniProt P43119) (assay: Binding to prostacyclin receptors (IP receptors) of human thrombocyte membranes). Conditions: displacement of 3 nM 3H-Iloprost, 60 min, room temperature.
T1 construct: Thrombocyte membranes are obtained by centrifuging 50 ml of human blood; tissue Maco Pharma, Langen (buffy coats); host or cells: human thrombocyte (platelet) membranes from blood buffy coats
T1 sequence (P43119 whole entry): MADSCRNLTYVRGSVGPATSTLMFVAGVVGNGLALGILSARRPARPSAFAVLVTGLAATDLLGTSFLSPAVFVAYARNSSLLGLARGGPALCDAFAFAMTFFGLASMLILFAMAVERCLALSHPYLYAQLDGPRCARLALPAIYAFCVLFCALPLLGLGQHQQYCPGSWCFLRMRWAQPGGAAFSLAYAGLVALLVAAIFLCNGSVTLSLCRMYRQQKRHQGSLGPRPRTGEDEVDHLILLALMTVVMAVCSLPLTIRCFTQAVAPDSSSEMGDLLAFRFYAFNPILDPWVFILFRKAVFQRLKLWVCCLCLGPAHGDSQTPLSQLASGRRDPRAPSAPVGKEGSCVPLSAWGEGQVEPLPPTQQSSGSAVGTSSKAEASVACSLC
Description: Thrombocyte membranes are obtained by centrifuging 50 ml of human blood (Buffy coats with CDP Stabilizer, from Maco Pharma, Langen) for 20 min at 160×g. Remove the supernatant (platelet-rich plasma, PRP) and then centrifuge again at 2000×g for 10 min at room temperature. Resuspend the sediment in 50 mM tris(hydroxymethyl)amino-methane, which has been adjusted to a pH of 7.4 with 1 N hydrochloric acid, and store at −20° C. overnight. On the next day, centrifuge the suspension at 80 000×g and 4° C. for 30 min. Discard the supernatant. Resuspend the sediment in 50 mM tris(hydroxy-methyl)aminomethane/hydrochloric acid, 0.25 mM ethylene diamine tetraacetic acid (EDTA), pH 7.4, and then centrifuge once again at 80 000×g and 4° C. for 30 min. Take up the membrane sediment in binding buffer (50 mM tris(hydroxymethyl)-aminomethane/hydrochloric acid, 5 mM magnesium chloride, pH 7.4) and store at −70° C. until the binding test.
For the binding test, incubate 3 nM ^3H-Iloprost (592 GBq/mmol, from AmershamBioscience) for 60 min with 300-1000 μg/ml of human thrombocyte membranes per charge (max. 0.2 ml) in the presence of the test substances at room temperature. After stopping, add cold binding buffer to the membranes and wash with 0.1% bovine serum albumin. After adding Ultima Gold Scintillator, quantify the radioactivity bound to the membranes using a scintillation counter. The nonspecific binding is defined as radioactivity in the presence of 1 μM Iloprost (from Cayman Chemical, Ann Arbor) and is as a rule <25% of the bound total radioactivity. The binding data (IC50 values) are determined using the program GraphPad Prism Version 3.02.

Structure (SMILES) | IC50
C=Cc1ccc(-c2c(-c3ccccc3)oc3ncnc(NCCCCCC(=O)OC)c23)nc1 [Example 3, Methyl 6-{[6-phenyl-5-(5-vinylpyridin-2-yl)furo[2,3-d]pyrimidin-4-yl]amino}hexanoate] | 105 nM
CCc1ccc(-c2c(-c3ccccc3)oc3ncnc(NCCCCCC(=O)O)c23)nc1 [Example 18] | 125 nM
COc1ccc(-c2c(-c3ccccn3)oc3ncnc(O[C@H](C)CCCCC(=O)O)c23)cc1 [Example 21] | 53 nM
COc1ccc(-c2c(C3=CCCCC3)oc3ncnc(O[C@H](C)CCCCC(=O)O)c23)cc1 [Example 24] | 72 nM
CC1CC=C(c2c(-c3ccccc3)oc3ncnc(O[C@H](C)CCCCC(=O)O)c23)CC1 (stereo partly drawn) [Example 26, (6R)-6-{[5-(4-Methylcyclohex-1-en-1-yl)-6-phenylfuro[2,3-d]pyrimidin-4-yl]oxy}heptanoic acid] | 1870 nM
COc1ccc(-c2c(-c3cccs3)oc3ncnc(NCCCCCC(=O)O)c23)cc1 [Example 32, 6-{[5-(4-Methoxyphenyl)-6-(2-thienyl)furo[2,3-d]pyrimidin-4-yl]amino}hexanoic acid] | 134 nM
CCOC(=O)COC[C@@H](C)COc1ncnc2oc(-c3ccccn3)c(-c3ccc(OC)cc3)c12 [Example 37] | 56 nM
CCc1ccc(-c2c(-c3ccccc3)oc3ncnc(OC[C@H](C)COCC(=O)O)c23)nc1 [Example 46] | 63 nM
COc1ccc(-c2c(-c3ncccc3F)oc3ncnc(O[C@H](C)CCCCC(=O)O)c23)cc1 [Example 48] | 121 nM
CCc1ccc(-c2c(-c3ccccn3)oc3ncnc(O[C@H](C)CCCCC(=O)O)c23)cc1 [Example 49] | 19 nM
CCc1ccc(-c2c(-c3ccccn3)oc3ncnc(OC[C@H](C)OCCC(=O)O)c23)cc1 [Example 51] | 193 nM
